Experimental data as given in paper PMC6979384, “Characterization of the plant homeodomain (PHD) reader family for their histone tail interactions” (Epigenetics & Chromatin, 2020).

Assays:
Experiment in all cases: Histone peptide microarray
Type in all cases: binding, human
ING1 = settings: GST-tagged ING1, sheet Array Heatmap, each array performed twice, total n = 4
Outline: (§1)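 Steps: express and purify GST-tagged PHD reader; incubate 0.5 μM protein on a peptide microarray (293 histone peptides, single or combined PTMs) following an optimized protocol; average signal across 4 replicates.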

PHF21A = settings: GST-tagged PHF21A, sheet Array Heatmap, each array performed twice, total n = 4
Outline: as §1

DPF2 (PPC2W2) = settings: GST-tagged DPF2 (PPC2W2 = Dual PHD + C2W2-type Zn-finger), sheet Array Heatmap, each array performed twice, total n = 4
Outline: as §1

KDM7A = settings: GST-tagged KDM7A, sheet Array Heatmap, each array performed twice, total n = 4
Outline: as §1

RAG2 = settings: GST-tagged RAG2, sheet Array Heatmap, each array performed twice, total n = 4
Outline: as §1

KDM5B (1) = settings: GST-tagged KDM5B (1), sheet Array Heatmap, each array performed twice, total n = 4
Outline: as §1

PHF23 = settings: GST-tagged PHF23, sheet Array Heatmap, each array performed twice, total n = 4
Outline: as §1

TRIM66 (PB) = settings: GST-tagged TRIM66 (PB = PHD + Bromodomain), sheet Array Heatmap, each array performed twice, total n = 4
Outline: as §1

KDM4C (TTP) = settings: GST-tagged KDM4C (TTP = Tandem Tudor domain + PHD), sheet Array Heatmap, each array performed twice, total n = 4
Outline: as §1

PHF2 = settings: GST-tagged PHF2, sheet Array Heatmap, each array performed twice, total n = 4
Outline: as §1

PHF8 = settings: GST-tagged PHF8, sheet Array Heatmap, each array performed twice, total n = 4
Outline: as §1

MLL5 = settings: GST-tagged MLL5, sheet Array Heatmap, each array performed twice, total n = 4
Outline: as §1

PHRF1 (RP) = settings: GST-tagged PHRF1 (RP), sheet Array Heatmap, each array performed twice, total n = 4
Outline: as §1

CHD5 (PCC) = settings: GST-tagged CHD5 (PCC = PHD + Dual Chromodomain), sheet Array Heatmap, each array performed twice, total n = 4
Outline: as §1

PHF13 = settings: GST-tagged PHF13, sheet Array Heatmap, each array performed twice, total n = 4
Outline: as §1

ING5 = settings: GST-tagged ING5, sheet Array Heatmap, each array performed twice, total n = 4
Outline: as §1

KDM5B (3) = settings: GST-tagged KDM5B (3), sheet Array Heatmap, each array performed twice, total n = 4
Outline: as §1

ING3 = settings: GST-tagged ING3, sheet Array Heatmap, each array performed twice, total n = 4
Outline: as §1

CHD4 (PPCC) = settings: for Array Heatmap signal (histone peptide microarray): GST-tagged CHD4 (PPCC = Dual PHD + Dual Chromodomain), sheet Array Heatmap, each array performed twice, total n = 4
Outline: as §1

ING2 = settings: GST-tagged ING2, sheet Array Heatmap, each array performed twice, total n = 4
Outline: as §1

MORC3 (CW) = settings: GST-tagged MORC3 (CW = CW-type Zn-finger), sheet Array Heatmap, each array performed twice, total n = 4
Outline: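 GST-tagged PHD readers, 0.5 μM, probed on a microarray of 293 synthetic histone peptides carrying single or combinatorial PTMs (optimized Petell protocol). Signals are averaged over 4 replicates and expressed as relative binding.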

KDM5A (1) = settings: GST-tagged KDM5A (1), sheet Array Heatmap, each array performed twice, total n = 4
Outline: as §1

ING4 = settings: GST-tagged ING4, sheet Array Heatmap, each array performed twice, total n = 4
Outline: as §1

CHD5 (PPCC) = settings: GST-tagged CHD5 (PPCC = Dual PHD + Dual Chromodomain), sheet Array Heatmap, each array performed twice, total n = 4
Outline: as §1

BAZ2B = settings: GST-tagged BAZ2B, sheet Array Heatmap, each array performed twice, total n = 4
Outline: as §1

SP140L = settings: GST-tagged SP140L, sheet Array Heatmap, each array performed twice, total n = 4
Outline: as §1

relative binding (CHD4 (PPCC); peptide microarray, reader 0.5 μM, n = 4): increased binding
Substance: H3K9ac: H3 1-20 [Peptide H3K9ac]
Array Heatmap signal (histone peptide microarray) (ING1; listed as 2): 0.5257
Array Heatmap signal (histone peptide microarray) (ING1; listed as 3): 0.5645
Array Heatmap signal (histone peptide microarray) (PHF21A; listed as 2): 0.4621
Array Heatmap signal (histone peptide microarray) (PHF21A; listed as 3): 0.47
Array Heatmap signal (histone peptide microarray) (DPF2 (PPC2W2); listed as 2): 0.7428
Array Heatmap signal (histone peptide microarray) (DPF2 (PPC2W2); listed as 3): 0.7589
Array Heatmap signal (histone peptide microarray) (KDM7A; listed as 2): 0.303
Array Heatmap signal (histone peptide microarray) (KDM7A; listed as 3): 0.3051
Array Heatmap signal (histone peptide microarray) (RAG2; listed as 2): 0.3184
Array Heatmap signal (histone peptide microarray) (RAG2; listed as 3): 0.2998
Array Heatmap signal (histone peptide microarray) (KDM5B (1); listed as 2): 0.6899
Array Heatmap signal (histone peptide microarray) (KDM5B (1); listed as 3): 0.6761
Array Heatmap signal (histone peptide microarray) (PHF23; listed as 2): 0.5351
Array Heatmap signal (histone peptide microarray) (PHF23; listed as 3): 0.5457
Array Heatmap signal (histone peptide microarray) (TRIM66 (PB); listed as 2): 0.8314
Array Heatmap signal (histone peptide microarray) (TRIM66 (PB); listed as 3): 0.731
Array Heatmap signal (histone peptide microarray) (KDM4C (TTP); listed as 2): 0.4318
Array Heatmap signal (histone peptide microarray) (KDM4C (TTP); listed as 3): 0.4332
Array Heatmap signal (histone peptide microarray) (PHF2; listed as 2): 0.6188
Array Heatmap signal (histone peptide microarray) (PHF2; listed as 3): 0.5837
Array Heatmap signal (histone peptide microarray) (PHF8; listed as 2): 0.3437
Array Heatmap signal (histone peptide microarray) (PHF8; listed as 3): 0.3517
Array Heatmap signal (histone peptide microarray) (MLL5; listed as 2): 0.5361
Array Heatmap signal (histone peptide microarray) (MLL5; listed as 3): 0.5261
Array Heatmap signal (histone peptide microarray) (PHRF1 (RP); listed as 2): 0.9096
Array Heatmap signal (histone peptide microarray) (PHRF1 (RP); listed as 3): 0.8949
Array Heatmap signal (histone peptide microarray) (CHD5 (PCC); listed as 2): 0.8342
Array Heatmap signal (histone peptide microarray) (CHD5 (PCC); listed as 3): 0.7526
Array Heatmap signal (histone peptide microarray) (PHF13; listed as 2): 0.5811
Array Heatmap signal (histone peptide microarray) (PHF13; listed as 3): 0.5738
Array Heatmap signal (histone peptide microarray) (ING5; listed as 2): 0.3289
Array Heatmap signal (histone peptide microarray) (ING5; listed as 3): 0.3311
Array Heatmap signal (histone peptide microarray) (KDM5B (3); listed as 2): 0.5795
Array Heatmap signal (histone peptide microarray) (KDM5B (3); listed as 3): 0.5654
Array Heatmap signal (histone peptide microarray) (ING3; listed as 2): 0.4489
Array Heatmap signal (histone peptide microarray) (ING3; listed as 3): 0.4338
Array Heatmap signal (histone peptide microarray) (CHD4 (PPCC); listed as 2): 0.6247
Array Heatmap signal (histone peptide microarray) (CHD4 (PPCC); listed as 3): 0.6748
Array Heatmap signal (histone peptide microarray) (ING2; listed as 2): 0.6059
Array Heatmap signal (histone peptide microarray) (ING2; listed as 3): 0.6036
Array Heatmap signal (histone peptide microarray) (MORC3 (CW); listed as 2): 0.5166
Array Heatmap signal (histone peptide microarray) (MORC3 (CW); listed as 3): 0.5177
Array Heatmap signal (histone peptide microarray) (KDM5A (1); listed as 2): 0.4743
Array Heatmap signal (histone peptide microarray) (KDM5A (1); listed as 3): 0.4479
Array Heatmap signal (histone peptide microarray) (ING4; listed as 2): 0.4346
Array Heatmap signal (histone peptide microarray) (ING4; listed as 3): 0.4319
Array Heatmap signal (histone peptide microarray) (CHD5 (PPCC); listed as 2): 0.5875
Array Heatmap signal (histone peptide microarray) (CHD5 (PPCC); listed as 3): 0.5535
Array Heatmap signal (histone peptide microarray) (BAZ2B; listed as 2): 0.4731
Array Heatmap signal (histone peptide microarray) (BAZ2B; listed as 3): 0.4634
Array Heatmap signal (histone peptide microarray) (SP140L; listed as 2): 0.3674
Array Heatmap signal (histone peptide microarray) (SP140L; listed as 3): 0.3745
